Laboratory results as given in publication PMC2765968, “A novel inhibitor of Chlamydophila pneumoniae protein kinase D (PknD) inhibits phosphorylation of CdsD and suppresses bacterial replication” (BMC Microbiology, 2009).

Molecular target: T1, CdsN (GST-CdsN) (Chlamydia pneumoniae, UniProt A0ABN3YQA5)
T1 construct: gene yopN; GST tag kept, eluted from glutathione-agarose
T1 sequence (A0ABN3YQA5 1-442): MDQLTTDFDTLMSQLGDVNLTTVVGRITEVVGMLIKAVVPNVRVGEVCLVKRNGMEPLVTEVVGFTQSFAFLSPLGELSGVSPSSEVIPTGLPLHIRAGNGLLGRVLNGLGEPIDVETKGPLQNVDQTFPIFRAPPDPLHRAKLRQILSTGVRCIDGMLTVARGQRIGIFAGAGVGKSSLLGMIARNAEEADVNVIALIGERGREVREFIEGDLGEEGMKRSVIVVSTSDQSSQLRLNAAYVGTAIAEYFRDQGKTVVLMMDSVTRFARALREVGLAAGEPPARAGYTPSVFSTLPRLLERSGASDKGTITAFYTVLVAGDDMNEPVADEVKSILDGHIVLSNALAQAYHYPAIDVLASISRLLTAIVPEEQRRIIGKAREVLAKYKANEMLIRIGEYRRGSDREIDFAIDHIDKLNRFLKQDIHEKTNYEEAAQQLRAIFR
Assay: ATP hydrolysis, malachite green phosphate assay
Assay type: biochemical
Conditions: […] ATP, […] Tris-HCl pH […] MgCl2, […] KCl, […] °C, […] min

Nc1ncnc2c1ncn2[C@@H]1O[C@H](COP(=O)(O)OP(=O)(O)OP(=O)(O)O)[C@@H](O)[C@H]1O [ATP]
ATP hydrolysis, malachite green phosphate assay: ATP hydrolysis by GST-CdsN purified from glutathione-agarose beads was measured using a malachite green assay
